Laboratory results from patent US10471035B2, “Compositions and methods for using esters of meroterpenes and of other resveratrol analogues” (Sunny BioDiscovery, priority 2014, dated 2019).
≈ marks a conversion by molar mass, not a printed value.

Tests used:
[1] = tested on: non-irradiated neonatal HDF; assay: Cytotoxicity on non-irradiated neonatal HDF monolayers; assay type: cell-based, human; details: human, 12.5 μg/ml
[2] = tested on: mouse melanoma cells (B16F10); assay: B16F10 melanoma growth and melanin; assay type: cell-based
Source text: Instead, cells cultured in the presence of SBD.SE grew slower and if allowed to reach monolayer, they become growth-arrested due to contact inhibition. […] Other retinoids, such as bexarotene, are known to have antineoplastic activity against cancers such as cutaneous T cell lymphoma.
The mechanism of action for this effect may be multifactorial and involve the inhibition of tyroinase and/or melanin secretion by melanocytes.

[3] = tested on: EpiOcular™ tissue; assay: EpiOcular Eye Irritation Test (OCL-200-EIT); assay type: cell-based, human
Protocol: Also, the effect of SBD.SE on the epiocular system was investigated. Epiocular system consists of normal, human-derived epidermal keratinocytes, which have been cultured to form a stratified, squamous epithelium similar to that found in the cornea.
The effect of SBD.SE was assayed on the EpiOcular™ tissue, using the MatTek (Ashland, Mass.) EpiOcular™ Eye Irritation Test (OCL-200-EIT) protocol.
Based on the “depth of injury” model, the Epiocular EIT is intended to differentiate those materials that are non-irritants (would not require a warning label in the European chemical classification systems) from those that would require labeling as either GHS1 or 2. Consequentially, this test allows to distinguish those materials that would induce no damage or damage limited into the corneal epithelium from those that would damage/destroy the epithelium and continue damage into the stroma.
This protocol utilizes the MTT-based cytotoxicity readout as the experimental endpoint, and thus effectively measures the cytotoxicity of test materials. Biological duplicates are used for all calculations. SBD.SE was tested at 10% (100 mg/ml) in dimethyl isosorbide (DMI). The negative control was type I sterile water and the positive control was neat methyl acetate. The pre-incubation time I was 60 min., preincubation time II—overnight, treatment time—30 min., post-soak is 120 min, incubation time with MTT test was 3 h and the extraction was overnight. The extracted formazan was quantified with Molecular Devices microplate spectrophotometer MAX190 at 570 nm.
Tissue irritation is a common side effect of retinoids. It is mediated, at least in part, by retinoid interaction with retinoic acid receptors (RARs; Thacher S M, Vasudevan J, Chandraratna R A. Therapeutic applications for ligands of retinoid receptors. Curr Pharm Des. 2000 January; 6(1):25-58; Kambayashi H, Odake Y, Takada K, Funasaka Y, Ichihashi M, Kato S. N-retinoyl-D-glucosamine, a new retinoic acid agonist, mediates topical retinoid efficacy with no irritation on photoaged skin. Br J Dermatol. 2005 December; 153 Suppl 2:30-6).

[4] = DPPH assay (free radical scavenging); assay type: biochemical; details: 520 nm
Source text: The objective of this experiment was to determine the antioxidant capacity of SBD.SE, using DPPH assay methodology. DPPH (2,2-diphenyl-1-picrylhydrazyl) is a stable free radical. The principle of the DPPH assay uses the reduction of the DPPH radical (purple) to diphenylpicrylhydrazine (yellow) as an indication of free radical scavenging capacity of a given test material (Schenk, G. H., Swieczkowski, N. K., “Colorimetric determination of pyrogallol and 2,6-dimethoxyphenol with diphenylpicrylhydrazyl,” Talanta, 1971, 18:230-4). Following the incubation of a test agent with DPPH solution, a reduction in absorbance at 520 nm compared to control is indicative of DPPH-scavenging. The degree of DPPH scavenging activity is expressed as % water control.

[5] = UVB irradiation, HPLC-MS profile; assay type: physicochemical
Source text: Both compounds were irradiated with UVB light and their HPLC-MS profile was compared to their respective non-irradiated controls. FIGS. 2, 3, 6, and 7 show HPLC chromatograms of UVB-irradiated (lower portions) and non-irradiated samples (upper portions) of bakuchiol (FIGS. 2 and 3) and SBD.SE (FIGS. 6 and 7) detected at 254 nm (FIGS. 2 and 6) and 230 nm (FIGS. 3 and 7).

[6] = tested on: P. acnes; assay: MIC against planktonic P. acnes; assay type: cell-based, Propionibacterium acnes; details: Cutibacterium acnes; exponentially-growing planktonic bacteria, oxygen-free atmosphere; read-out: MIC (minimal inhibitory concentration)
Protocol: Serial dilutions of SBD.SE and SBD.FA were incubated with exponentially-growing planktonic P. acnes bacteria in oxygen-free atmosphere.
The MIC (minimal inhibitory concentration) for SBD.SE was determined to be about 30 μg/ml and for SBD.FA—about 60 μg/ml.

C=C[C@@](C)(/C=C/c1ccc(OC(=O)c2ccccc2O)cc1)CCC=C(C)C [SBD.SE, Salicylic acid ester of bakuchiol]
cytotoxicity [1]: 18%
growth of B16F10 cells ([2]; 1 μg/ml to 10 μg/ml): inhibited the growth
inhibition at 2.5 µg/mL ([2]; Mus musculus, B16-F10, 2.5 μg/ml, read-out: inhibition of B16F10 melanocyte proliferation): 44%
melanin in growth medium ([2]; versus darkened medium of water control): completely deprived of melanin
irritation in reconstituted squamous epithelium model [3]: no statistically significant irritation
classification in EpiOcular EIT ([3]; 10% (100 mg/ml) in DMI): non-irritant and non-cytotoxic
viability (% of water control) ([3]; SBD.SE 10% (100 mg/ml) in DMI, methyl acetate neat, 30 min treatment, MTT): over 60%
DPPH color (% Control) ([4]; 0.5 ug/ml): 86 % Control
DPPH color (% Control) ([4]; 2 ug/ml): 89 % Control
DPPH color (% Control) ([4]; 10 ug/ml): 59 % Control
DPPH color (% Control) ([4]; 16 ug/ml): 28 % Control
DPPH color (% Control) ([4]; 40 ug/ml): 6 % Control
stability under UVB irradiation (HPLC-MS) [5]: no difference in mass of the peaks
MIC [6]: ~30 mg/L (≈ 79.7 µM)
